Source: patent US9981942B2, “Piperidine derivatives having multimodal activity against pain” (LABORATORIOS DEL DR. ESTEVE S.A., priority 2013, dated 2018)

These molecules were tested on σ1 receptor and the μ-opiod receptor (assay: μ and σ1 dual binding: combined class from the Ki of both radioligand assays). Conditions: combined class for Ki-μ and Ki-σ1; transfected HEK-293 membranes (σ1), transfected CHO-K1 cell membranes (μ).
Design: species or system human; key to μ and σ1 dual binding: +: Both Ki-μ and Ki-σ1>=500 nM; ++: One Ki<500 nM while the other Ki is >=500 nM; +++: Both Ki-μ and Ki-σ1<500 nM; ++++: Both Ki-μ and Ki-σ1<100 nM
Outline: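 Classes combine both Ki values, split at 500 nM and 100 nM. Human μ-opioid binding used 1 nM [3H]-DAMGO on CHO-K1 membranes (27 °C, 60 min, pH 7.4, naloxone 10 μM for NSB); human σ1 used 5 nM [3H](+)-pentazocine on HEK-293 membranes (37 °C, 120 min, pH 8, haloperidol 10 μM for NSB).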

Row | SMILES | μ and σ1 dual binding
1 | CC(C)S(=O)(=O)Nc1cccc(C2CCN(Cc3cn(Cc4ccccn4)cn3)CC2)c1 [Example 186, N-(3-(1-((1-(pyridin-2-ylmethyl)-1H-imidazol-4-yl)methyl)piperidin-4-yl)phenyl)propane-2-sulfonamide] | ++
2 | O=c1[nH]c2cccc(C3CCN(Cc4cn(-c5ccccc5)nn4)CC3)c2[nH]1 [Example 13, 4-(1-((1-phenyl-1H-1,2,3-triazol-4-yl)methyl)piperidin-4-yl)-1H-benzo[d]imidazol-2(3H)-one] | ++
3 | CCC(=O)Nc1ccnc(C2CCN(Cc3cn(-c4ccccc4)nn3)CC2)c1 [Example 192, N-(2-(1-((1-phenyl-1H-1,2,3-triazol-4-yl)methyl)piperidin-4-yl)pyridin-4-yl)propionamide] | ++
4 | CC(C)S(=O)(=O)Nc1cccc(C2CCN(Cc3cn(Cc4ccc(F)cn4)nn3)CC2)c1 [Example 135, N-(3-(1-((1-((5-fluoropyridin-2-yl)methyl)-1H-1,2,3-triazol-4-yl)methyl)piperidin-4-yl)phenyl)propane-2-sulfonamide] | ++
5 | CC(C)S(=O)(=O)Nc1cccc(C2CCN(Cc3cn(Cc4ccc(C(F)(F)F)cn4)nn3)CC2)c1 [Example 122, N-(3-(1-((1-((5-(trifluoromethyl)pyridin-2-yl)methyl)-1H-1,2,3-triazol-4-yl)methyl)piperidin-4-yl)phenyl)propane-2-sulfonamide] | ++
6 | CNS(=O)(=O)c1cccc(C2CCN(Cc3cn(-c4ccccc4)nn3)CC2)c1 [Example 17, N-methyl-3-(1-((1-phenyl-1H-1,2,3-triazol-4-yl)methyl)piperidin-4-yl)benzenesulfonamide] | ++
7 | CC(C)S(=O)(=O)Nc1cccc(C2CCN(Cc3cn(Cc4cccc(C(F)(F)F)n4)nn3)CC2)c1 [Example 117, N-(3-(1-((1-((6-(trifluoromethyl)pyridin-2-yl)methyl)-1H-1,2,3-triazol-4-yl)methyl)piperidin-4-yl)phenyl)propane-2-sulfonamide] | ++

Same assay, conditions: transfected HEK-293 membranes (σ1), transfected CHO-K1 cell membranes (μ)

Row | SMILES | Ki range for both μ and σ1 (dual-binding class) [nM]
8 | Oc1cccc(C2CCN(Cc3cn(-c4cc(F)ccc4F)nn3)CC2)c1 [Example 223, 3-(1-((1-(2,5-difluorophenyl)-1H-1,2,3-triazol-4-yl)methyl)piperidin-4-yl)phenol] | < 100
9 | CS(=O)(=O)Nc1cccc(C2CCN(Cc3cn(C4CCCCC4)nn3)CC2)c1 [Example 22, N-(3-(1-((1-cyclohexyl-1H-1,2,3-triazol-4-yl)methyl)piperidin-4-yl)phenyl)methanesulfonamide] | < 500
10 | CS(=O)(=O)Nc1cncc(C2CCN(Cc3cn(-c4ccccc4)nn3)CC2)c1 [Example 194, N-(5-(1-((1-phenyl-1H-1,2,3-triazol-4-yl)methyl)piperidin-4-yl)pyridin-3-yl)methanesulfonamide] | ≥ 500
11 | Oc1cccc(C2CCN(Cc3cn([C@H]4CC[C@@H](C(F)(F)F)CC4)nn3)CC2)c1 [Example 82, 3-(1-((1-((1s,4s)-4-(trifluoromethyl)cyclohexyl)-1H-1,2,3-triazol-4-yl)methyl)piperidin-4-yl)phenol] | < 100
12 | CS(=O)(=O)Nc1cccc(C2CCN(Cc3cc(-c4ccccc4)no3)CC2)n1 [Example 200, N-(6-(1-((3-phenylisoxazol-5-yl)methyl)piperidin-4-yl)pyridin-2-yl)methanesulfonamide] | < 500
13 | COc1cccc(-n2cc(CN3CCC(c4cccc(O)c4)CC3)nn2)c1 [Example 44, 3-(1-((1-(3-methoxyphenyl)-1H-1,2,3-triazol-4-yl)methyl)piperidin-4-yl)phenol] | < 100
14 | CCNC(=O)Nc1cccc(C2CCN(Cc3cn(-c4ccccc4)nn3)CC2)c1 [Example 56, 1-ethyl-3-(3-(1-((1-phenyl-1H-1,2,3-triazol-4-yl)methyl)piperidin-4-yl)phenyl)urea] | < 500
